In patent US9777003B2, “Tricyclic heterocycles as bet protein inhibitors” (Incyte Corporation, priority 2013, dated 2017):
Structures can show the parent of a compound that is named as a salt.

Tests used:
BRD4-BD1 = BRD4-BD1 (Homo sapiens (Human), UniProt O60885); assay: BRD4 AlphaScreen assay, BRD4-BD1; format: binding; conditions: biotin-labeled tetra-acetylated histone H4 peptide, 75 min, room temperature, read-out: BRD4 BD-1 enzyme IC50
In short: (§1)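 Bromodomain–H4Ac4 peptide (50 nM) proximity assay; BD1 at 3.8 nM, BD2 at 20 nM. Reaction 75 min RT, bead detection 75 min in the dark, IC50 by dose-response fit.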

BRD4-BD2 = BRD4-BD2 (Homo sapiens (Human), UniProt O60885); assay: BRD4 AlphaScreen assay, BRD4-BD2; format: binding; conditions: biotin-labeled tetra-acetylated histone H4 peptide, 75 min, room temperature, read-out: BRD4 BD-2 enzyme IC50
In short: as §1

Compound | IC50 (BRD4-BD1) | IC50 (BRD4-BD2)
Cc1nnc2ccc3c(cc(-c4ccn(CCC(=O)NC5CCOCC5)n4)n3Cc3cccc(Cl)c3)n12 [Example 170, 3-{3-[6-(3-Chlorobenzyl)-1-methyl-6H-pyrrolo[2,3-e][1,2,4]triazolo[4,3-a]pyridin-7-yl]-1H-pyrazol-1-yl}-N-(tetrahydro-2H-pyran-4-yl)propanamide Trifluoroacetate Salt] | ≤ 0.1 µM | ≤ 0.1 µM
Cc1nnc2ccc3c(cc(-c4ccn(CCC(=O)NC5CN(C)C5)n4)n3Cc3cccc(Cl)c3)n12 [Example 171, 3-{3-[6-(3-Chlorobenzyl)-1-methyl-6H-pyrrolo[2,3-e][1,2,4]triazolo[4,3-a]pyridin-7-yl]-1H-pyrazol-1-yl}-N-(1-methylazetidin-3-yl)propanamide bis(trifluoroacetate) Salt] | ≤ 0.1 µM | ≤ 0.1 µM
Cc1nnc2ccc3c(cc(-c4c[nH]cn4)n3Cc3cccc(Cl)c3)n12 [Example 172, 6-(3-Chlorobenzyl)-7-(1H-imidazol-4-yl)-1-methyl-6H-pyrrolo[2,3-e][1,2,4]triazolo[4,3-a]pyridine bis(trifluoroacetate) Salt] | ≤ 0.1 µM | ≤ 0.1 µM
Cc1nnc2ccc3c(cc(-c4ccn(CCCO)n4)n3Cc3cccc(Cl)c3)n12 [Example 173, 3-{3-[6-(3-Chlorobenzyl)-1-methyl-6H-pyrrolo[2,3-e][1,2,4]triazolo[4,3-a]pyridin-7-yl]-1H-pyrazol-1-yl}propan-1-ol Trifluoroacetate Salt] | ≤ 0.1 µM | ≤ 0.1 µM
CNC(=O)CCn1ccc(-c2cc3c(ccc4nnc(C)n43)n2Cc2cccc(Cl)c2)n1 [Example 174, 3-{3-[6-(3-Chlorobenzyl)-1-methyl-6H-pyrrolo[2,3-e][1,2,4]triazolo[4,3-a]pyridin-7-yl]-1H-pyrazol-1-yl}-N-methylpropanamide Trifluoroacetate Salt] | ≤ 0.1 µM | ≤ 0.1 µM
CCNC(=O)CCn1ccc(-c2cc3c(ccc4nnc(C)n43)n2Cc2cccc(Cl)c2)n1 [Example 175, 3-{3-[6-(3-Chlorobenzyl)-1-methyl-6H-pyrrolo[2,3-e][1,2,4]triazolo[4,3-a]pyridin-7-yl]-1H-pyrazol-1-yl}-N-ethylpropanamide Trifluoroacetate Salt] | ≤ 0.1 µM | ≤ 0.1 µM
Cc1nnc2ccc3c(cc(-c4ccn(CCC(=O)NC(C)(C)C)n4)n3Cc3cccc(Cl)c3)n12 [Example 176, N-(tert-Butyl)-3-{3-[6-(3-chlorobenzyl)-1-methyl-6H-pyrrolo[2,3-e][1,2,4]triazolo[4,3-a]pyridin-7-yl]-1H-pyrazol-1-yl}propanamide Trifluoroacetate Salt] | ≤ 0.1 µM | ≤ 0.1 µM
Cc1nnc2ccc3c(cc(-c4ccn(C5COC5)n4)n3Cc3cccc(Cl)c3)n12 [Example 177, 6-(3-Chlorobenzyl)-1-methyl-7-(1-oxetan-3-yl-1H-pyrazol-3-yl)-6H-pyrrolo[2,3-e][1,2,4]triazolo[4,3-a]pyridine Trifluoroacetate Salt] | ≤ 0.1 µM | ≤ 0.1 µM
Cc1nnc2ccc3c(cc(-c4ccn(CCO)n4)n3Cc3cccc(Cl)c3)n12 [Example 178, 2-{3-[6-(3-Chlorobenzyl)-1-methyl-6H-pyrrolo[2,3-e][1,2,4]triazolo[4,3-a]pyridin-7-yl]-1H-pyrazol-1-yl}ethanol Trifluoroacetate Salt] | ≤ 0.1 µM | ≤ 0.1 µM

Next, values leading:

IC50 (BRD4-BD1) | IC50 (BRD4-BD2) | Compound
≤ 0.1 µM | ≤ 0.1 µM | CCN1CC(n2ccc(-c3cc4c(ccc5nnc(C)n54)n3Cc3cccc(Cl)c3)n2)C1 [Example 160, 6-(3-Chlorobenzyl)-7-[1-(1-ethylazetidin-3-yl)-1H-pyrazol-3-yl]-1-methyl-6H-pyrrolo[2,3-e][1,2,4]triazolo[4,3-a]pyridine bis(trifluoroacetate) Salt]
≤ 0.1 µM | ≤ 0.1 µM | Cc1nnc2ccc3c(cc(-c4ccn(C5CN(S(=O)(=O)N(C)C)C5)n4)n3Cc3cccc(Cl)c3)n12 [Example 161, 3-{3-[6-(3-Chlorobenzyl)-1-methyl-6H-pyrrolo[2,3-e][1,2,4]triazolo[4,3-a]pyridin-7-yl]-1H-pyrazol-1-yl}-N,N-dimethylazetidine-1-sulfonamide bis(trifluoroacetate) Salt]
≤ 0.1 µM | ≤ 0.1 µM | Cc1nnc2ccc3c(cc(-c4ccn(C5CN(C(=O)CN(C)C)C5)n4)n3Cc3cccc(Cl)c3)n12 [Example 162, 2-(3-{3-[6-(3-Chlorobenzyl)-1-methyl-6H-pyrrolo[2,3-e][1,2,4]triazolo[4,3-a]pyridin-7-yl]-1H-pyrazol-1-yl}azetidin-1-yl)-N,N-dimethyl-2-oxoethanamine bis(trifluoroacetate) Salt]
≤ 0.1 µM | ≤ 0.1 µM | CCC(=O)N1CC(n2ccc(-c3cc4c(ccc5nnc(C)n54)n3Cc3cccc(Cl)c3)n2)C1 [Example 163, 6-(3-Chlorobenzyl)-1-methyl-7-[1-(1-propionylazetidin-3-yl)-1H-pyrazol-3-yl]-6H-pyrrolo[2,3-e][1,2,4]triazolo[4,3-a]pyridine Trifluoroacetate Salt]
≤ 0.1 µM | ≤ 0.1 µM | Cc1nnc2ccc3c(cc(-c4ccn(C5CN(C(=O)C6CC6)C5)n4)n3Cc3cccc(Cl)c3)n12 [Example 164, 6-(3-Chlorobenzyl)-7-{1-[1-(cyclopropylcarbonyl)azetidin-3-yl]-1H-pyrazol-3-yl}-1-methyl-6H-pyrrolo[2,3-e][1,2,4]triazolo[4,3-a]pyridine Trifluoroacetate Salt]
≤ 0.1 µM | ≤ 0.1 µM | Cc1nnc2ccc3c(cc(-c4ccn(C5CN(S(=O)(=O)C6CC6)C5)n4)n3Cc3cccc(Cl)c3)n12 [Example 165, 6-(3-Chlorobenzyl)-7-{1-[1-(cyclopropylsulfonyl)azetidin-3-yl]-1H-pyrazol-3-yl}-1-methyl-6H-pyrrolo[2,3-e][1,2,4]triazolo[4,3-a]pyridine Trifluoroacetate Salt]
≤ 0.1 µM | ≤ 0.1 µM | CCS(=O)(=O)N1CC(n2ccc(-c3cc4c(ccc5nnc(C)n54)n3Cc3cccc(Cl)c3)n2)C1 [Example 166, 6-(3-Chlorobenzyl)-7-{1-[1-(ethylsulfonyl)azetidin-3-yl]-1H-pyrazol-3-yl}-1-methyl-6H-pyrrolo[2,3-e][1,2,4]triazolo[4,3-a]pyridine Trifluoroacetate Salt]
≤ 0.1 µM | ≤ 0.1 µM | CCOC(=O)N1CC(n2ccc(-c3cc4c(ccc5nnc(C)n54)n3Cc3cccc(Cl)c3)n2)C1 [Example 167, Ethyl 3-{3-[6-(3-chlorobenzyl)-1-methyl-6H-pyrrolo[2,3-e][1,2,4]triazolo[4,3-a]pyridin-7-yl]-1H-pyrazol-1-yl}azetidine-1-carboxylate Trifluoroacetate Salt]
≤ 0.1 µM | ≤ 0.1 µM | Cc1nnc2ccc3c(cc(-c4ccn(CCC(=O)NC5COC5)n4)n3Cc3cccc(Cl)c3)n12 [Example 168, 3-{3-[6-(3-Chlorobenzyl)-1-methyl-6H-pyrrolo[2,3-e][1,2,4]triazolo[4,3-a]pyridin-7-yl]-1H-pyrazol-1-yl}-N-oxetan-3-ylpropanamide Trifluoroacetate Salt]
≤ 0.1 µM | ≤ 0.1 µM | Cc1nnc2ccc3c(cc(-c4ccn(CCC(=O)N5CCOCC5)n4)n3Cc3cccc(Cl)c3)n12 [Example 169, 6-(3-Chlorobenzyl)-1-methyl-7-[1-(3-morpholin-4-yl-3-oxopropyl)-1H-pyrazol-3-yl]-6H-pyrrolo[2,3-e][1,2,4]triazolo[4,3-a]pyridine Trifluoroacetate Salt]
